In patent publication US7199113B2, “Pharmaceutically active compounds and methods of use thereof” (priority 1998, dated 2007):
Where two headings read alike, the source gives them in different places.

Columns and labels:
[1] = biological target: T1, human recombinant TF/VIIa complex (lipidated) (Homo sapiens, UniProt P13726); experiment: TF/VIIa-dependent FX activation assay; assay type: biochemical; conditions: for outcome of primary and secondary screening (TF antagonism): inhibit FX activation at lower concentrations (<0.1 mM) without significant effects on protease activities; for blocking activity in standard assay for TF/VIIa-dependent factor X activation: statement on FIG. 3
T1 construct: Truncated recombinant human tissue factor (e.g. composed of 243 amino acids) is expressed in E. coli; host or cells: E. coli (TF)
Procedure: A more particular example of the primary screening assay discussed previously is as follows. The assay is standard for measuring TF/VIIa-dependent factor X activation. […] In a more preferred embodiment, the primary screening preferably includes the following steps. • 1) admixing in a suitable assay solution about 0.1 nM of human recombinant TF/VIIa complex (lipidated), about 180 nM human FX, and between from about 0.5 μl to about 10 μl of at least one compound to be tested (optionally dissolved in an appropriate vehicle such as water or dimethylsulfoxide (DMSO)) and incubating the reaction at 37° C. for a few minutes up to about an hour or more, • 2) contacting the solution with a suitable chelating agent such as ethylenediaminietetra acetic acid (EDTA) to reduce or stop factor X activation, • 3) contacting the solution with a detectable amount of a chromogenic substrate specific for FXa (e.g., Spectrozyme FXa or S-2765) and incubating same at 37° C.; and • 4) detecting chromophore produced in the solution as being indicative of the factor X activation.
The primary screening for compounds that inhibit tissue factor/factor VIIa (TF/VIIa) is based on TF/VIIa-dependent FX activation assay (See flow chart in FIG. 1 of the drawings). In this assay, the ability of TF/VIIa complex to activate FX is determined in two discontinuous stages. […] In the second stage (FXa activity assay), EDTA is added at indicated times to the FX activation mixture to chelate calcium, thus leading to the termination of FX→FXa conversion. Calcium is required for TF/VIIa activity. The activity of FXa is then measured by FXa-specific chromogenic substrates such as S-2222, S-2765, or Spectrozyme FXa. In the primary screening, compounds from a previously prepared chemical library are first tested at relatively high concentrations (˜0.833 mM) in TF/VIIa-dependent FX activation assay to identify hits of potential TF pathway antagonists (see FIG. 1). However, it is evident that the inhibition of TF/VIIa-dependent FX activation by a compound in this enzyme-coupled assay can be attributed to effects of the compound on TF/VIIa and/or FXa activities. Thus, secondary screening tests are designed to determine how inhibition takes place and the inhibition mechanism. In secondary screening experiments, effects of those compounds identified from primary screening are tested on catalytic activities of factor VIIa (FVIIa), factor IXa (FIXa), factor Xa (FXa), thrombin, Russell's viper venom (RVV), and trypsin.
Primary screening was done in duplicate in 96-well plates using the TF/VIIa-dependent FX activation assay. All compounds to be screened were dissolved in dimethyl sulfoxide (DMSO), other reagents were prepared or diluted in 25 mM HEPES-NaOH, 5 mM CaCl2, 150 mM NaCl, 0.1% BSA, pH 7.5. For assays where TF was used, purified human recombinant TF (100 nM) was first lipidated with phosphatidylcholine (0.07 mg/ml) and phosphatidylserine (0.03 mg/ml) in 50 mM Tris-HCl, pH 7.5, 0.1% bovine serum albumin (BSA) for 30 minutes at 37° C. A stock solution of TF/VIIa complex was then prepared by combining equal volumes of 100 nM lipidated TF and 100 nM FVIIa The complex was incubated at 37° C. for 30 minutes and then was aliquoted and stored at −70° C. for future uses.
For screening assays, 5 μl of each compound (about 10 mM in DMSO) or DMSO were placed in each well of a 96-well plate, followed by adding 45 μl of TF/VIIa complex (0.1 nM). The components in each well were mixed either with pipette tips or by shaking the plate on a Lab-Line titer plate shaker for 30 seconds. After 15 minutes incubation of the plate at a 37° C., 10 μl of human FX (180 nM) was added to each well and mixed as above. The plate was then incubated at 37° C. for 3 to 15 minutes, followed by addition of 10 μl of EDTA (400 mM in 144 mM HEPES, 864 mM NaCl, 0.576% BSA, pH adjusted to 7.5) to each well to terminate FX activation. […]

TF/FVIIa complex = biological target: T2, TF/FVIIa complex (Homo sapiens, UniProt P08709+P13726, DEL276-295); experiment: FVIIa activity assay (TF/VIIa catalytic activity toward S-2288); assay type: biochemical; conditions: statement on Table 1 (FIG. 2(a))
T2 construct: proteolytic cleavage of the zymogen FVII to the active serine protease FVIIa; Truncated recombinant human tissue factor (e.g. composed of 243 amino acids) is expressed in E. coli; host or cells: E. coli (TF)
Procedure: Factor VIIa (FVIIa) activity, or the effect of TF and FVIIa interactions, can be determined in the presence of TF using FX and a small peptide (chromogenic) substrate or in the absence of TF using FX as substrate. Assays using FVIIa-specific chromogenic substrate S-2288 directly measures the effect of a compound on FVIIa catalytic activity. In this assay, 55 μl of TF/FVIIa complex (containing 10 nM TF and 10 nM VIIa) was first incubated with 5 μl of DMSO (or diluted DMSO) or compound, in a 96-well plate for 15 minutes at 37° C., then admixed with 20 μl of 8 mM S-2288. The reaction was incubated for 1–2 hours at 37° C. Absorbance at 405 nm was then measured after the reaction was quenched with 20 μl of 50% acetic acid. The percent inhibition of TF/VIIa activity was calculated from OD405 nm values in the absence and presence of a compound. […] Inhibition of TF/VIIa activity toward S-2288 by the two compounds would be expected if they were to bind to VIIa active site or prevent TF and VIIa from forming an active complex.

[2] = titration, data of Table 3 (FIG. 2(c)), primary screening method, read-out: IC50 (inhibitor concentration at which 50% of TF/VIIa-dependent FX activation is inhibited)

SMILES | IC50 ([1]; compound preincubated with TF/VIIa 15 minutes at 37° C. prior to FX, FX 30 nM, read-out: IC50, TF/VIIa-dependent FX activation) [µM] | outcome of primary and secondary screening (TF antagonism) [1] | effect on apparent Km values for FX substrate ([1]; kinetic analysis, FIG. 5) | mode of inhibition of TF/VIIa complex ([1]; kinetic analysis, FIG. 5) | blocking activity in standard assay for TF/VIIa-dependent factor X activation [1] | IC50 [1, 2] [µM] | effect on TF/VIIa catalytic activity toward S-2288 (TF/FVIIa complex)
O=P(O)(O)C(CNc1cccc(O)c1)P(=O)(O)O [Compound 1, 1-(bisphosponate)-2-amino(3-hydroxyphenyl)ethyl] | 12.5 | strong TF antagonists | significantly increased | competitive inhibitor | good blocking activity | 19 | do not have significant effect
O=P(O)(O)C(CNc1ccc(O)cc1)P(=O)(O)O [Compound 2] |  | strong TF antagonists |  |  | good blocking activity | 9.7 | do not have significant effect
